Converted amounts (≈) assume the structure as drawn.
Legend:
Assay type in all cases: functional
Nilaparvata lugens [1] = test: (§1) Insecticidal activity against Nilaparvata lugens (brown planthopper) F1' progeny generated from reciprocal cross between male imidacloprid-susceptible strain and female imidaclporid-resistant strain in rice stem assessed as mortality treated for 30 secs prior to nymph infestation measured at 96 hr post-drug treatment by rice-stem dipping method
Nilaparvata lugens [2] = test: Insecticidal activity against Nilaparvata lugens (brown planthopper) parental generation in rice stem assessed as mortality treated for 30 secs prior to nymph infestation measured at 96 hr post-drug treatment by rice-stem dipping method; conditions: read-out: Log10LC50 (converted)
Nilaparvata lugens [3] = test: Resistance ratio of LC50 for Nilaparvata lugens (brown planthopper) F1 progeny to LC50 for imidacloprid-susceptible brown planthopper
Nilaparvata lugens [4] = test: Insecticidal activity against third instar nymph stage of imidacloprid-susceptible Nilaparvata lugens (brown planthopper) in rice stem assessed as mortality treated for 30 secs prior to nymph infestation measured at 96 hr post-drug treatment by rice-stem dipping method
Nilaparvata lugens [5] = test: Insecticidal activity against 23 generation selection pressure-induced imidacloprid-resistance Nilaparvata lugens (brown planthopper) at third instar nymph stage in rice stem assessed as mortality treated for 30 secs prior to nymph infestation measured at 96 hr post-drug treatment by rice-stem dipping method
Nilaparvata lugens [6] = test: Resistance ratio of LC50 for Nilaparvata lugens (brown planthopper) F1' progeny to LC50 for imidacloprid-susceptible brown planthopper
Nilaparvata lugens [7] = test: Resistance ratio of LC50 for imidacloprid-resistance Nilaparvata lugens (brown planthopper) to LC50 for imidacloprid-susceptible brown planthopper
Nilaparvata lugens [8] = test: as §1, with “F1” for “F1'”, “female” for “male”, “male” for “female”
Nilaparvata lugens [9] = test: Insecticidal activity against Nilaparvata lugens (brown planthopper) offspring obtained after 23 selected generations in rice stem assessed as mortality treated for 30 secs prior to nymph infestation measured at 96 hr post-drug treatment by rice-stem dipping method; conditions: read-out: Log10LC50 (converted)

Structure (SMILES): O=[N+]([O-])/N=C1\NCCN1Cc1ccc(Cl)nc1 [IMIDACLOPRID]
- LC50 (Nilaparvata lugens [1]): 30.2 µg/mL (≈ 118 µM)
- LC50 (Nilaparvata lugens [2]): 62.5 mM
- RatioLC50 (Nilaparvata lugens [3]): 233.45
- LC50 (Nilaparvata lugens [4]): 0.11 µg/mL (≈ 0.43 µM)
- LC50 (Nilaparvata lugens [5]): 106 µg/mL (≈ 415 µM)
- RatioLC50 (Nilaparvata lugens [6]): 274.45
- RatioLC50 (Nilaparvata lugens [7]): 964.09
- LC50 (Nilaparvata lugens [8]): 25.7 µg/mL (≈ 100 µM)
- LC50 (Nilaparvata lugens [9]): 9.43 mM

— ChEMBL document CHEMBL3046277, “Inheritance mode and realized heritability of resistance to imidacloprid in the brown planthopper, Nilaparvata lugens (Stål) (Homoptera: Delphacidae)” (2009)
